Test results taken from the NIST ThermoML archive (doi:10.1007/s10765-008-0410-4).
Numbers after ± are expanded uncertainties.

Experiment: xn = mol fraction of the nth substance listed
Details: Liquid, Vibrating tube method

CCCCn1cc[n+](C)c1.F[B-](F)(F)F [1-butyl-3-methylimidazolium tetrafluoroborate] + CCO
Details | mass density [kg/m3]
298.15 K, 120 kPa, x1 = 0.9152 | 1199.7 ± 1.1
298.15 K, 180 kPa, x1 = 0.7452 | 1171.71 ± 0.71
298.15 K, 210 kPa, x1 = 0.5384 | 1124.67 ± 0.37
298.15 K, 280 kPa, x1 = 1 | 1211.19 ± 1.3
298.15 K, 340 kPa, x1 = 0.3147 | 1044.49 ± 0.17
298.15 K, 390 kPa, x1 = 0.0701 | 875.91 ± 0.14
298.15 K, 4960 kPa, x1 = 0.7452 | 1174.16 ± 0.75
298.15 K, 5040 kPa, x1 = 0.5384 | 1127.45 ± 0.4
298.15 K, 5140 kPa, x1 = 0.9152 | 1202.06 ± 1.1
298.15 K, 5500 kPa, x1 = 0.0701 | 880.04 ± 0.16
298.15 K, 5630 kPa, x1 = 0.3147 | 1048.05 ± 0.18
298.15 K, 5640 kPa, x1 = 1 | 1213.63 ± 1.4
298.15 K, 10030 kPa, x1 = 0.9152 | 1204.31 ± 1.2
298.15 K, 10060 kPa, x1 = 0.7452 | 1176.71 ± 0.78
298.15 K, 10260 kPa, x1 = 0.5384 | 1130.36 ± 0.43
298.15 K, 10620 kPa, x1 = 1 | 1215.85 ± 1.4
298.15 K, 10910 kPa, x1 = 0.3147 | 1051.47 ± 0.19
298.15 K, 11370 kPa, x1 = 0.0701 | 884.58 ± 0.17
298.15 K, 15130 kPa, x1 = 0.0701 | 887.37 ± 0.18
298.15 K, 15210 kPa, x1 = 0.7452 | 1179.21 ± 0.82
298.15 K, 15280 kPa, x1 = 0.3147 | 1054.2 ± 0.19
298.15 K, 15320 kPa, x1 = 0.5384 | 1133.1 ± 0.46
298.15 K, 15340 kPa, x1 = 1 | 1217.77 ± 1.4
298.15 K, 15620 kPa, x1 = 0.9152 | 1206.82 ± 1.2
298.15 K, 20090 kPa, x1 = 0.5384 | 1135.59 ± 0.49
298.15 K, 20360 kPa, x1 = 0.7452 | 1181.64 ± 0.87
298.15 K, 20480 kPa, x1 = 0.9152 | 1208.95 ± 1.3
298.15 K, 20540 kPa, x1 = 0.3147 | 1057.36 ± 0.21
298.15 K, 20640 kPa, x1 = 1 | 1220.29 ± 1.5
298.15 K, 21070 kPa, x1 = 0.0701 | 891.6 ± 0.19
298.15 K, 25270 kPa, x1 = 1 | 1222.18 ± 1.5
298.15 K, 25410 kPa, x1 = 0.7452 | 1183.95 ± 0.91
298.15 K, 25470 kPa, x1 = 0.3147 | 1060.21 ± 0.22
298.15 K, 25570 kPa, x1 = 0.0701 | 894.66 ± 0.2
298.15 K, 26070 kPa, x1 = 0.5384 | 1138.61 ± 0.53
298.15 K, 26140 kPa, x1 = 0.9152 | 1211.36 ± 1.3
298.15 K, 29870 kPa, x1 = 0.9152 | 1212.91 ± 1.4
298.15 K, 30050 kPa, x1 = 1 | 1223.93 ± 1.6
298.15 K, 30070 kPa, x1 = 0.5384 | 1140.56 ± 0.55
298.15 K, 30090 kPa, x1 = 0.7452 | 1186.03 ± 0.95
298.15 K, 30620 kPa, x1 = 0.0701 | 897.94 ± 0.22
298.15 K, 31120 kPa, x1 = 0.3147 | 1063.34 ± 0.23
298.15 K, 35410 kPa, x1 = 0.5384 | 1143.07 ± 0.59
298.15 K, 35410 kPa, x1 = 1 | 1226.07 ± 1.6
298.15 K, 35480 kPa, x1 = 0.7452 | 1188.36 ± 0.99
298.15 K, 35740 kPa, x1 = 0.9152 | 1215.3 ± 1.4
298.15 K, 35800 kPa, x1 = 0.3147 | 1065.82 ± 0.24
298.15 K, 35860 kPa, x1 = 0.0701 | 901.17 ± 0.23
298.15 K, 39340 kPa, x1 = 0.0701 | 903.23 ± 0.23
298.15 K, 39610 kPa, x1 = 1 | 1227.81 ± 1.7
298.15 K, 39770 kPa, x1 = 0.3147 | 1067.84 ± 0.26
298.15 K, 39920 kPa, x1 = 0.7452 | 1190.22 ± 1
298.15 K, 39980 kPa, x1 = 0.5384 | 1145.14 ± 0.62
298.15 K, 39980 kPa, x1 = 0.9152 | 1216.97 ± 1.4
323.15 K, 290 kPa, x1 = 0.0701 | 856.52 ± 0.15
323.15 K, 340 kPa, x1 = 0.3147 | 1026.83 ± 0.16
323.15 K, 420 kPa, x1 = 0.7452 | 1153.47 ± 0.69
323.15 K, 510 kPa, x1 = 0.9152 | 1181.35 ± 1.1
323.15 K, 730 kPa, x1 = 1 | 1192.89 ± 1.3
323.15 K, 850 kPa, x1 = 0.5384 | 1106.94 ± 0.36
323.15 K, 4870 kPa, x1 = 0.9152 | 1183.6 ± 1.1
323.15 K, 4890 kPa, x1 = 0.5384 | 1109.43 ± 0.38
323.15 K, 5010 kPa, x1 = 0.3147 | 1030.15 ± 0.17
323.15 K, 5060 kPa, x1 = 0.7452 | 1156.05 ± 0.72
323.15 K, 5410 kPa, x1 = 0.0701 | 861.09 ± 0.16
323.15 K, 5640 kPa, x1 = 1 | 1195.3 ± 1.3
323.15 K, 9860 kPa, x1 = 0.5384 | 1112.4 ± 0.41
323.15 K, 10080 kPa, x1 = 0.9152 | 1186.23 ± 1.1
323.15 K, 10110 kPa, x1 = 0.3147 | 1033.63 ± 0.17
323.15 K, 10610 kPa, x1 = 1 | 1197.71 ± 1.4
323.15 K, 10730 kPa, x1 = 0.0701 | 865.61 ± 0.18
323.15 K, 10740 kPa, x1 = 0.7452 | 1159.11 ± 0.76
323.15 K, 14870 kPa, x1 = 0.5384 | 1115.29 ± 0.43
323.15 K, 15080 kPa, x1 = 0.7452 | 1161.39 ± 0.79
323.15 K, 15210 kPa, x1 = 0.9152 | 1188.77 ± 1.2
323.15 K, 15410 kPa, x1 = 0.3147 | 1037.07 ± 0.18
323.15 K, 15430 kPa, x1 = 0.0701 | 869.4 ± 0.19
323.15 K, 15440 kPa, x1 = 1 | 1200.01 ± 1.4
323.15 K, 20160 kPa, x1 = 0.5384 | 1118.22 ± 0.46
323.15 K, 20310 kPa, x1 = 0.7452 | 1164.06 ± 0.83
323.15 K, 20330 kPa, x1 = 0.0701 | 873.16 ± 0.21
323.15 K, 20460 kPa, x1 = 1 | 1202.37 ± 1.4
323.15 K, 20470 kPa, x1 = 0.9152 | 1191.31 ± 1.2
323.15 K, 20750 kPa, x1 = 0.3147 | 1040.38 ± 0.19
323.15 K, 25010 kPa, x1 = 0.9152 | 1193.45 ± 1.2
323.15 K, 25120 kPa, x1 = 0.7452 | 1166.45 ± 0.86
323.15 K, 25360 kPa, x1 = 1 | 1204.64 ± 1.5
323.15 K, 25380 kPa, x1 = 0.0701 | 876.83 ± 0.22
323.15 K, 25840 kPa, x1 = 0.5384 | 1121.23 ± 0.49
323.15 K, 26290 kPa, x1 = 0.3147 | 1043.62 ± 0.2
323.15 K, 30070 kPa, x1 = 0.9152 | 1195.79 ± 1.3
323.15 K, 30080 kPa, x1 = 0.7452 | 1168.84 ± 0.9
323.15 K, 30260 kPa, x1 = 0.5384 | 1123.49 ± 0.52
323.15 K, 30330 kPa, x1 = 0.0701 | 880.21 ± 0.24
323.15 K, 30640 kPa, x1 = 0.3147 | 1046.04 ± 0.21
323.15 K, 30740 kPa, x1 = 1 | 1207.09 ± 1.5
323.15 K, 34740 kPa, x1 = 0.0701 | 883.06 ± 0.25
323.15 K, 34960 kPa, x1 = 0.9152 | 1198 ± 1.3
323.15 K, 35070 kPa, x1 = 0.7452 | 1171.16 ± 0.94
323.15 K, 35260 kPa, x1 = 0.3147 | 1048.48 ± 0.22
323.15 K, 35420 kPa, x1 = 0.5384 | 1126.01 ± 0.55
323.15 K, 35650 kPa, x1 = 1 | 1209.29 ± 1.6
323.15 K, 39850 kPa, x1 = 1 | 1211.14 ± 1.6
323.15 K, 40000 kPa, x1 = 0.9152 | 1200.22 ± 1.4
323.15 K, 40010 kPa, x1 = 0.0701 | 886.25 ± 0.26
323.15 K, 40010 kPa, x1 = 0.7452 | 1173.4 ± 0.98
323.15 K, 40020 kPa, x1 = 0.5384 | 1128.17 ± 0.57
323.15 K, 40120 kPa, x1 = 0.3147 | 1050.91 ± 0.23
348.15 K, 210 kPa, x1 = 1 | 1174.44 ± 1.2
348.15 K, 230 kPa, x1 = 0.3147 | 1007.5 ± 0.16
348.15 K, 380 kPa, x1 = 0.7452 | 1134.96 ± 0.66
348.15 K, 450 kPa, x1 = 0.5384 | 1088.13 ± 0.34
348.15 K, 460 kPa, x1 = 0.9152 | 1163.17 ± 1
348.15 K, 520 kPa, x1 = 0.0701 | 835.75 ± 0.15
348.15 K, 5010 kPa, x1 = 0.5384 | 1091.32 ± 0.36
348.15 K, 5040 kPa, x1 = 0.9152 | 1165.81 ± 1
348.15 K, 5340 kPa, x1 = 0.0701 | 840.67 ± 0.17
348.15 K, 5360 kPa, x1 = 0.7452 | 1138.08 ± 0.69
348.15 K, 5740 kPa, x1 = 0.3147 | 1011.89 ± 0.16
348.15 K, 5960 kPa, x1 = 1 | 1177.75 ± 1.3
348.15 K, 10060 kPa, x1 = 0.5384 | 1094.71 ± 0.38
348.15 K, 10090 kPa, x1 = 0.7452 | 1140.95 ± 0.72
348.15 K, 10480 kPa, x1 = 1 | 1180.3 ± 1.3
348.15 K, 11210 kPa, x1 = 0.9152 | 1169.27 ± 1.1
348.15 K, 11420 kPa, x1 = 0.3147 | 1016.16 ± 0.16
348.15 K, 11710 kPa, x1 = 0.0701 | 846.75 ± 0.19
348.15 K, 15080 kPa, x1 = 0.9152 | 1171.38 ± 1.1
348.15 K, 15210 kPa, x1 = 0.5384 | 1098.01 ± 0.41
348.15 K, 15420 kPa, x1 = 0.7452 | 1144.07 ± 0.76
348.15 K, 15430 kPa, x1 = 1 | 1182.72 ± 1.3
348.15 K, 15740 kPa, x1 = 0.3147 | 1019.22 ± 0.17
348.15 K, 15840 kPa, x1 = 0.0701 | 850.45 ± 0.21
348.15 K, 20060 kPa, x1 = 0.5384 | 1100.98 ± 0.43
348.15 K, 20080 kPa, x1 = 0.7452 | 1146.71 ± 0.79
348.15 K, 20550 kPa, x1 = 0.0701 | 854.43 ± 0.22
